Where two headings read alike, the source gives them in different places.
Test system: C. elegans
Test: microbe, parasite or virus in culture
Conditions: Caenorhabditis elegans
[1] = 0 h, read-out: Percentage of motility inhibition 0 h, Table S2, C. elegans SS assay, 110 μM, 0 h, averages of 4 data points
[2] = 24 h, read-out: Percentage of motility inhibition 24 h, Table S2, C. elegans SS assay, 110 μM, 24 h, averages of 4 data points

Compound	inhibition at 110 µM [1] [%]	inhibition at 110 µM [2] [%]	inhibition at 110 µM (0 h, read-out: Percentage of motility inhibition 0 h) [%]	inhibition at 110 µM (24 h, read-out: Percentage of motility inhibition 24 h) [%]
C/C=C(/C)C(=O)O[C@H]1[C@H](OC(C)=O)[C@]2(CO)[C@H](O)C[C@]3(C)C(=CC[C@@H]4[C@@]5(C)CC[C@H](O[C@@H]6O[C@H](C(=O)O)[C@@H](O[C@@H]7O[C@H](CO)[C@@H](O)[C@H](O)[C@H]7O)[C@H](O)[C@H]6O[C@@H]6O[C@H](CO)[C@@H](O)[C@H](O)[C@H]6O)[C@](C)(CO)[C@@H]5CC[C@]43C)[C@@H]2CC1(C)C [Escin IB]	0	0	–	–
C[C@]12CC[C@@H]3c4ccc(O)cc4CC[C@H]3[C@@H]1CC[C@@H]2O [Estradiol]	1	2	–	–
C[C@]12CC[C@@H]3c4ccc(O)cc4CC[C@H]3[C@@H]1C[C@@H](O)[C@@H]2O [Estriol]	2	10	–	–
C[C@]12CC[C@@H]3c4ccc(O)cc4CC[C@H]3[C@@H]1CCC2=O [Estrone]	32	0	–	–
C#C[C@]1(O)CC[C@H]2[C@@H]3CCc4cc(O)ccc4[C@H]3CC[C@@]21C [Ethinylestradiol]	33	15	–	–
CCc1cc(C(N)=S)ccn1 [Ethionamide]	64	12	–	–
CCOC(=O)c1ccc(O)cc1 [Ethylparaben]	32	8	–	–
COc1cc([C@@H]2c3cc4c(cc3[C@@H](O[C@@H]3O[C@@H]5CO[C@@H](C)O[C@H]5[C@H](O)[C@H]3O)[C@H]3COC(=O)[C@H]23)OCO4)cc(OC)c1O [Etoposide]	0	4	–	–
Cc1cc(C#N)cc(C)c1Oc1nc(Nc2ccc(C#N)cc2)nc(N)c1Br [Etravirine]	17	2	–	–
COc1ccc(-c2cc(=O)c3c(O)c(OC)c(OC)cc3o2)cc1O [Eupatorin]	7	26	–	–
CC(C)=CCC[C@@H](C)[C@@H]1CC[C@]2(C)C3=C(CC[C@@]12C)[C@@]1(C)CC[C@H](O)C(C)(C)[C@@H]1CC3 [Euphol]	0	41	–	–
C=C1[C@@H](O)[C@]2(O)OC[C@]34[C@H]2[C@@]2(C)[C@H](O)C(=O)C=C(C)[C@@H]2C[C@H]3OC(=O)[C@H](O)[C@@]14O [Eurycomanone]	0	4	–	–
C[C@@H]1CC[C@]2(C(=O)O)CC[C@]3(C)C(=CC[C@@H]4[C@@]5(C)C[C@@H](O)[C@@H](O)C(C)(C)[C@@H]5CC[C@]43C)[C@@H]2[C@]1(C)O [Euscaphic acid]	18	27	–	–
COc1ccc2c(OC)c3ccoc3nc2c1 [Evolitrine]	0	15	–	–
CC(=O)OCC(CCn1cnc2cnc(N)nc21)COC(C)=O [Famciclovir]	15	2	–	–
COc1ccc2cc1Oc1ccc(cc1)C[C@H]1c3cc(c(OC)cc3CCN1C)Oc1c(O)c(OC)cc3c1[C@H](C2)N(C)CC3 [Fangchinoline]	0	0	–	–
Cc1oc(=O)oc1COC(=O)C1=C([C@H]2CCCO2)S[C@@H]2[C@@H]([C@@H](C)O)C(=O)N12 [Faropenem daloxate]	5	17	–	–
Cc1c(O)c(C)c2c(c1O)C(=O)C[C@@H](c1ccc(O)cc1)O2 [Farrerol]	–	–	6	9
O=C(C[C@H]1NCCC[C@@H]1O)Cn1cnc2ccccc2c1=O [Febrifugine]	0	0	–	–
COC(=O)Nc1nc2ccc(Sc3ccccc3)cc2[nH]1 [Fenbendazole]	8	14	–	–
CC12CCC(C1)C(C)(C)C2O (stereo not shown) [Fenchyl alcohol]	2	0	–	–
CSc1ccc(OCc2ncc([N+](=O)[O-])n2C)cc1 [Fexinidazole]	11	29	–	–
O=c1c(O)c(-c2ccc(O)c(O)c2)oc2cc(O)ccc12 [Fisetin]	0	2	–	–

Reference: publication PMC11855827, “High-Throughput Screening of Five Compound Libraries for Anthelmintic Activity and Toxicity Leads to the Discovery of Two Flavonoid Compounds” (International Journal of Molecular Sciences, 2025)
